The values below come from publication PMC6260593, “Kaempferol and Kaempferol Rhamnosides with Depigmenting and Anti-Inflammatory Properties” (Molecules, 2011).

Series [1] relates to NO production in LPS-activated RAW264.7 cells. In words: Inhibition of NO production induced by LPS in RAW264.7 cells (Griess). The format is cell-based. The settings on record: Mus musculus, LPS 1 μg/mL, 24 h, read-out: Inhibitory activity [IC50] NO. Here is the method: The nitrite in the culture supernatants was measured by adding Griess reagent (100 μL, 1% sulfanilamide and 0.1% N-[1-naphthyl]-ethylenediamine dihydrochloride in 5% phosphoric acid) to samples of the medium (100 μL) for 10 min at room temperature. The OD at 570 nm (OD570) was measured using a Spectramax 250 microplate reader (Molecular Devices). A standard curve of NO was made with sodium nitrite.

Series [2] can be described thus: Cytotoxicity in RAW264.7 cells (MTT). The settings on record: mouse. Here is the method:
(§1) The cytotoxic effect of kojyl thioether derivatives was then evaluated by a conventional MTT assay. At 3 h prior to culture termination, MTT solution (10 μL, 5 mg/mL in a phosphate buffered-saline, pH 7.4) was added and the cells were continuously cultured until termination. The incubation was halted by the addition of 15% sodium dodecyl sulfate into each well, solubilizing formazan. The absorbance at 570 nm (OD570–630) was measured by a Spectramax 250 microplate reader.

A short description of series [3]: Cytotoxicity towards B16 melanoma cells. The format is cell-based. The settings on record: mouse, read-out: Inhibitory activity [IC50] Cytotoxicity.
In series [4] the test system is B16 melanoma cells. In words: Depigmenting activity (melanin content) in B16 melanoma cells. Type of series: cell-based. The settings on record: for IC50: Mus musculus, 120 h, 5 days, melanin content, read-out: Inhibitory activity [IC50] Depigmentation. How it is done: The cell pellets were then dissolved in 1 N NaOH in 10% DMSO (500 μL) at 80 °C for 1 h. The relative melanin content was determined by measuring the absorbance at 475 nm with an ELISA reader (Molecular Devices Corp., Menlo Park, CA, USA). A standard synthetic melanin curve (0–500 μg⁄mL) was prepared in triplicate for each experiment.

The test system of another series is iNOS mRNA. In words: Expression of iNOS mRNA in LPS-activated RAW 264.7 cells (RT-PCR). The format is cell-based. The conditions noted are these: 25–100 μM, LPS 1 μg/mL for 6 h. How it is done: RAW 264.7 cells were treated with different concentrations of compound 1 and 2 (25–100 μM) and then stimulated with LPS (1 μg/mL) for 6 h.
The total RNA from the LPS treated-RAW264.7 cells was prepared by adding TRIzol Reagent (Gibco BRL), as per the manufacturer’s instructions. Real-time PCR reactions were conducted using MuLV reverse transcriptase. The primers (Bioneer, Daejeon, Korea) were used as previously reported.

Another series relates to RAW264.7 cells. In words: Cytotoxicity in RAW264.7 cells (MTT). Here is the method: as §1
The test system of series [5] is NF-κB-mediated luciferase activity. In words: NF-κB-mediated luciferase assay in HEK293 cells. The settings on record: HEK293 cells transfected with NF-κB-Luc, PMA 0.1 μM, 24 h, read-out: Inhibitory activity [IC50] NF-κB-mediated luciferase activity. Type of series: cell-based. Here is the method:
HEK293 cells (1 × 10^6 cells/mL) were transfected with plasmids containing NF-κB-Luc, (1 μg/mL each) as well as β-galactosidase (0.5 μg/mL) using the PEI method in a 12-well plate for 48 h, and they were treated with testing compounds in the presence or absence of PMA (0.1 μM) for 24 h. Luciferase assay was performed using the Luciferse Assay System (Promega).

For series [6], the system named is B16 melanoma cells. In words: Cytotoxicity towards B16 melanoma cells. The format is cell-based.
The next series addresses Tyrosinase. Also on record: method as in PMID 21050756. The settings on record: previously reported, cited from earlier work; for IC50: means of three experiments, read-out: Inhibitory activity [IC50] Tyrosinase.

Like-named read-outs stand apart in the source and are kept apart here.

Take `CC(=O)CCCCn1c(=O)c2c(ncn2C)n(C)c1=O` [Pentoxifylline, pentoxifylline, reference compound]: the IC50 (in general, the concentration that gives 50% inhibition) in series [1] worked out at 446 ± 1.1 µM. Besides, in [2] (RAW264.7 cells), the IC50 at 24 h is above 1000 µM.

As to `OC[C@H]1O[C@@H](Oc2ccc(O)cc2)[C@H](O)[C@@H](O)[C@@H]1O` [Arbutin, reference compound], the IC50 was above 200 µM in [3] and 171 ± 2.1 µM in the series with B16 melanoma cells [4].

Turning to `O=c1c(O)c(-c2ccc(O)cc2)oc2cc(O)cc(O)c12` [Kaempferol (1), kaempferol], the IC50 is 15.4 ± 0.2 µM in series [1]; 90.3 ± 5.1 µM in series [5] (Homo sapiens); 25.6 ± 0.9 µM in series [3]; 37.66 ± 0.1 µM in the series on B16 melanoma cells [4]; 171.4 ± 0.9 µM at Tyrosinase. In the series on iNOS mRNA, the “Expression of iNOS mRNA (in words)” value is reported as “suppressed the expression of iNOS mRNA in a dose-dependent manner”. In series [2] (RAW264.7 cells), this compound registered an IC50 at 24 h above 100 µM. Besides, the “Cytotoxicity in the NO assay cells (in words)” value with RAW264.7 cells (RAW264.7 cells) is on record as “without cytotoxicity”. In addition, the “Cytotoxicity towards B16 melanoma cells (in words)” value in the series with B16 melanoma cells [6] is “showed cytotoxicity towards B16 melanoma cells”. The “Depigmenting inhibitory activity (in words)” value with B16 melanoma cells [4] was “showed inhibitory activity”. The “Tyrosinase inhibitory activity (in words)” value with Tyrosinase was “showed tyrosinase inhibitory activities”.

`C[C@@H]1O[C@@H](Oc2cc(O)c3c(=O)c(O[C@@H]4O[C@@H](C)[C@H](O)[C@@H](O)[C@H]4O)c(-c4ccc(O)cc4)oc3c2)[C@H](O)[C@H](O)[C@H]1O` [Kaempferitrin (4), kaempferol-3,7-O-α-dirhamnoside]: the IC50 (in series [1]; in series [5] (Homo sapiens); in series [3]; in the series on B16 melanoma cells [4]) was above 100 µM throughout. Also, the IC50 at 24 h in series [2] was above 100 µM. Also, the “Tyrosinase inhibitory activity (in words)” value in the series with Tyrosinase is recorded as “showed no inhibitory activities”.

Regarding `C[C@@H]1O[C@@H](Oc2cc(O)c3c(=O)c(O)c(-c4ccc(O)cc4)oc3c2)[C@H](O)[C@H](O)[C@H]1O` [α-Rhamnoisorobin (2), kaempferol 7-O-α-L-rhamnopyranoside], the IC50 was 37.7 ± 2 µM in [1]; 36.2 ± 3.3 µM in series [5] (Homo sapiens); 22.9 ± 1.3 µM in [3]; 39.5 ± 0.4 µM in the series on B16 melanoma cells [4]; above 400 µM at Tyrosinase. The “Expression of iNOS mRNA (in words)” value in the series on iNOS mRNA was “suppressed the expression of iNOS mRNA in a dose-dependent manner”. The same compound showed an IC50 at 24 h in series [2] above 100 µM. Further, the “Cytotoxicity in the NO assay cells (in words)” value in the series with RAW264.7 cells is reported as “without cytotoxicity”. The “Cytotoxicity towards B16 melanoma cells (in words)” value in the series with B16 melanoma cells [6] was “showed cytotoxicity towards B16 melanoma cells”. In addition, the “Depigmenting inhibitory activity (in words)” value in the series on B16 melanoma cells [4] was “showed inhibitory activity”. The “Tyrosinase inhibitory activity (in words)” value in the series with Tyrosinase was “showed tyrosinase inhibitory activities”.

With `C[C@@H]1O[C@@H](Oc2c(-c3ccc(O)cc3)oc3cc(O)cc(O)c3c2=O)[C@H](O)[C@H](O)[C@H]1O` [Afzelin (3), kaempferol 3-O-α-L-rhamnopyranoside], the IC50 (in series [1]; in series [5] (Homo sapiens); in series [3]; in the series with B16 melanoma cells [4]) was above 100 µM in each case. Besides, in [2], the IC50 at 24 h is above 100 µM. Also, the “Tyrosinase inhibitory activity (in words)” value in the series on Tyrosinase is given as “showed no inhibitory activities”.

For `Cc1ccc(S(=O)(=O)/C=C/C#N)cc1` [BAY11-7082, reference compound], the IC50 in series [5] was 11.5 ± 0.1 µM.
